Data set [1] is described as follows: chemical recovery from spiked human plasma; higher = better extraction. The following applies: pooled human plasma.
The nature of data set [2]: chemical recovery into PDMS from spiked human plasma; higher = better extraction. The following applies: pooled human plasma, extraction method: PES with PDMS.
[3] abbreviates: extraction method: PES+SPE (3 d PDMS equilibration then HLB SPE).
The mark [4] stands for this setting: extraction method: SPE only (HLB 96-well).
Where [5] appears, read: extraction method: solvent precipitation (ACN + hexane).
Setting [6] is: extraction method: SPE only (HLB 96-well), PES comparison experiment.

± gives the standard deviation.

`CCCCOP(=O)(O)OCCCC` [Di-n-butyl phosphate]: the chemical recovery was determined as 42.2 ± 5% in data set [1] (setting [3]), 33.5 ± 3.3% in data set [1] (setting [4]) and 67.8 ± 3.6% in data set [1] (setting [5]). In addition, the “chemical recovery into PDMS” value came to 25.9 ± 1.5% in data set [2] (equilibration time (d): 1), 31.1 ± 3.2% in data set [2] (equilibration time (d): 3) and 30.9 ± 1.4% in data set [2] (equilibration time (d): 6).
Consider `O=C1C2CC3C1C1(Cl)C(Cl)C4(Cl)C2C3C1(Cl)C4(Cl)Cl` (stereo not given) [Endrinketone], for which the “chemical recovery into PDMS” value in data set [2] (equilibration time (d): 1) stood at 75.4 ± 13%; in data set [2] (equilibration time (d): 3), 90.3 ± 7%; in data set [2] (equilibration time (d): 6), 87.5 ± 2.9%.
For the compound `CCOP(=S)(OCC)SCSP(=S)(OCC)OCC` [Ethion], the chemical recovery in data set [1] (setting [4]) turned out to be 37.2 ± 9.9%; in data set [1] (setting [6]) it was 31.7 ± 5.8%. Moreover, the “chemical recovery into PDMS” value turned out to be 48.1 ± 8.9% in data set [2] (equilibration time (d): 1), 47.4 ± 4.3% in data set [2] (equilibration time (d): 3) and 46.7 ± 1.1% in data set [2] (equilibration time (d): 6).
With `CC(C)OC(=O)C(C)(C)Oc1ccc(C(=O)c2ccc(Cl)cc2)cc1` [Fenofibrate], the chemical recovery in data set [1] (setting [6]) was found to be 31.5 ± 6%. Further, the “chemical recovery into PDMS” value in data set [2] (equilibration time (d): 1) worked out at 47.1 ± 4.2%; in data set [2] (equilibration time (d): 3), 50.6 ± 5.3%; in data set [2] (equilibration time (d): 6), 48 ± 3.2%.
`CCOC(=O)NCCOc1ccc(Oc2ccccc2)cc1` [Fenoxycarb]: the chemical recovery in data set [1] (setting [5]) amounted to 72 ± 7.2%. The “chemical recovery into PDMS” value in data set [2] (equilibration time (d): 1) turned out to be 52.1 ± 2.8%; in data set [2] (equilibration time (d): 3) it was 54.3 ± 4.4%; in data set [2] (equilibration time (d): 6), 52.2 ± 7.9%.
In data set [1] (setting [4]), `CC(=O)C1(C)CC2=C(CCCC2(C)C)CC1C` (stereo not given) [ISO E Super] showed a chemical recovery of 2.41 ± 2.6%. The figures for the “chemical recovery into PDMS” value in data set [2] (equilibration time (d): 1), in data set [2] (equilibration time (d): 3) and in data set [2] (equilibration time (d): 6) were 33.8 ± 6.6%, 34.9 ± 2.3% and 42.6 ± 7%, respectively.
Turning to `COC(=O)N(C(=O)N1CO[C@@]2(C(=O)OC)Cc3cc(Cl)ccc3C2=N1)c1ccc(OC(F)(F)F)cc1` [Indoxacarb], the chemical recovery in data set [1] (setting [4]) stood at 61.3 ± 15%; in data set [1] (setting [6]) it was 38.3 ± 8.6%. The entries for the “chemical recovery into PDMS” value in data set [2] (equilibration time (d): 1), in data set [2] (equilibration time (d): 3) and in data set [2] (equilibration time (d): 6) were 52.6 ± 5.8%, 52 ± 9.1% and 53.2 ± 3.8%, respectively.
In turn, `CC1=CC(=O)CC(C)(C)C1` [Isophorone] registered a chemical recovery in data set [1] (setting [4]) of 0.623 ± 0.28%. The “chemical recovery into PDMS” value in data set [2] (equilibration time (d): 1) worked out at 4.8 ± 8.3%.
In turn, `CC(=O)O[C@]1(C(C)=O)CC[C@H]2[C@@H]3C[C@H](C)C4=CC(=O)CC[C@]4(C)[C@H]3CC[C@@]21C` [Medroxyprogesteroneacetate] returned a chemical recovery in data set [1] (setting [6]) of 44.5 ± 8.6%. Besides, the “chemical recovery into PDMS” value in data set [2] (equilibration time (d): 1) came out at 41.5 ± 4.3%; in data set [2] (equilibration time (d): 3), 46.8 ± 1.9%; in data set [2] (equilibration time (d): 6), 43.4 ± 1.5%.
On to `CN(C)C(=N)NC(=N)N` [Metformin], for which the chemical recovery was determined as 1.5 ± 0.32% in data set [1] (setting [3]), 2.12 ± 0.71% in data set [1] (setting [4]) and 83.3 ± 12% in data set [1] (setting [5]). Further, the “chemical recovery into PDMS” value in data set [2] (equilibration time (d): 6) was 0.002 ± 0.0035%.
As for `C[C@@H]1C[C@H]2[C@@H]3CCC4=CC(=O)C=C[C@]4(C)[C@@]3(Cl)[C@@H](O)C[C@]2(C)[C@@]1(OC(=O)c1ccco1)C(=O)CCl` [Mometasone fuorate], the chemical recovery in data set [1] (setting [6]) was 32.8 ± 7.8%. Moreover, the results for the “chemical recovery into PDMS” value in data set [2] (equilibration time (d): 1), in data set [2] (equilibration time (d): 3) and in data set [2] (equilibration time (d): 6) were 22.4 ± 3%, 29.4 ± 3.4% and 32.6 ± 2.6%, respectively.
Regarding `CCCCCCCCCCN(C)C` [N,N-Dimethyldecylamine], in data set [1] (setting [6]), the chemical recovery is 39.4 ± 7.1%. Besides, the “chemical recovery into PDMS” value in data set [2] (equilibration time (d): 6) was found to be 0.000993 ± 0.0017%.
Take `CCCCC(CC)COC(=O)C(C#N)=C(c1ccccc1)c1ccccc1` (stereo not given) [Octocrylene]: the chemical recovery worked out at 73.7 ± 6% in data set [1] (setting [3]), 2.21 ± 0.76% in data set [1] (setting [4]) and 59.8 ± 6.2% in data set [1] (setting [5]). The “chemical recovery into PDMS” value in data set [2] (equilibration time (d): 1) was found to be 62.5 ± 6.4%; in data set [2] (equilibration time (d): 3), 65.5 ± 8%; in data set [2] (equilibration time (d): 6) it was 65.4 ± 1.9%.
`CC(C)Oc1cc(-n2nc(C(C)(C)C)oc2=O)c(Cl)cc1Cl` [Oxadiazone]: the chemical recovery in data set [1] (setting [4]) is 43.6 ± 4.8%; in data set [1] (setting [6]), 34.7 ± 5.2%. The results for the “chemical recovery into PDMS” value in data set [2] (equilibration time (d): 1), in data set [2] (equilibration time (d): 3) and in data set [2] (equilibration time (d): 6) were 39.1 ± 3.5%, 40.4 ± 3.1% and 37.8 ± 2.7%, respectively.
On to `O=C(O)C(F)(F)C(F)(F)C(F)(F)C(F)(F)C(F)(F)C(F)(F)F` [Perfluoroheptanoic acid], for which the chemical recovery in data set [1] (setting [3]) is 34.1 ± 2.9%; in data set [1] (setting [4]), 27.1 ± 4.2%; in data set [1] (setting [6]), 39.8 ± 8.7%; in data set [1] (setting [5]), 85.3 ± 16%. Moreover, the “chemical recovery into PDMS” value was 0.0266 ± 0.023% in data set [2] (equilibration time (d): 1), 0.00647 ± 0.017% in data set [2] (equilibration time (d): 3) and 0.0383 ± 0.0028% in data set [2] (equilibration time (d): 6).
